For assay [1], the system named is Staphylococcus aureus. Kind of assay: Antibiofilm activity against Methicillin-resistant Staphylococcus aureus ATCC BAA-4A assessed as inhibition of biofilm formation. It counts as functional, organism-based.
The test system of assay [2] is Enterococcus faecalis. Description: Antibacterial activity against Enterococcus faecalis ATCC 29212 assessed as bacterial growth inhibition incubated for 15 to 18 hrs by Muller hinton broth based dilution assay. The format is functional. Conditions: time 15-18 hrs.
Assay [3] concerns Enterococcus faecalis. Kind of assay: Antibiofilm activity against Enterococcus faecalis ATCC 29212 assessed as biofilm eradication incubated for 20 mins by crystal violet staining based analysis. The format is functional.
Assay [4] deals with Pseudomonas aeruginosa. Kind of assay: Anti-motility activity against Pseudomonas aeruginosa PAO1 assessed as reduction in swarming at 20 uM incubated for 16 hrs by crystal violet staining analysis relative to control. The format is functional. Also on record: scale not given: the % may be the effect or the level left.
Assay [5] deals with Staphylococcus epidermidis. Description: Antibiofilm activity against Staphylococcus epidermidis assessed as inhibition of biofilm formation at 40 uM measured after 24 hrs by confocal laser scanning microscopy analysis relative to control. The format is functional. Also on record: scale not given: the % may be the effect or the level left.
The subject of assay [6] is Staphylococcus aureus. Description: Antibacterial activity against Staphylococcus aureus ATCC 25923 assessed as reduction in bacterial growth incubated for 18 to 24 hrs by broth microdilution method. The format is functional. Conditions: time 18-24 hrs. (In general: In broth dilution the organism is exposed to a series of concentrations in liquid medium.)
Assay [7] has as its system Staphylococcus aureus. Kind of assay: Antibacterial activity against Staphylococcus aureus ATCC 29213 assessed as reduction in bacterial growth incubated for 18 to 24 hrs by broth microdilution method. The format is functional. To be noted: time 18-24 hrs.
Assay [8] has as its system Staphylococcus aureus. Description: Antibacterial activity against Staphylococcus aureus ATCC 6538 assessed as reduction in bacterial growth incubated for 18 to 24 hrs by broth microdilution method. The format is functional. To be noted: time 18-24 hrs.
Assay [9] deals with Staphylococcus epidermidis. Kind of assay: Antibacterial activity against Staphylococcus epidermidis RP62A assessed as reduction in bacterial growth incubated for 18 to 20 hrs by broth microdilution assay. Conditions: time 18-20 hrs. It counts as functional.
Assay [10] is described as follows: Inhibition of Staphylococcus aureus sortase A by FRET assay.
Assay [11] deals with Pseudomonas aeruginosa. Description: Antibiofilm activity against Pseudomonas aeruginosa PA14 assessed as inhibition of biofilm formation incubated for 24 hrs by microscopic analysis. Conditions: PA14, 24 h. The format is functional, organism-based.
The test system of assay [12] is Staphylococcus aureus. Description: Antimicrobial activity against Staphylococcus aureus ATCC 25923 assessed as reduction in bacterial growth at 0.5 uM incubated for 16 hrs by broth dilution method relative to control. It counts as functional. More on the design: scale not given: the % may be the effect or the level left.
The subject of assay [13] is Staphylococcus aureus. Description: Antimicrobial activity against Staphylococcus aureus ATCC 25923 assessed as reduction in bacterial growth at 0.25 uM incubated for 16 hrs by broth dilution method relative to control. Also on record: scale not given: the % may be the effect or the level left. The format is functional.
Assay [14] concerns Staphylococcus aureus. Description: Antimicrobial activity against Staphylococcus aureus ATCC 25923 assessed as reduction in bacterial growth at 0.12 uM incubated for 16 hrs by broth dilution method relative to control. It counts as functional. More on the design: scale not given: the % may be the effect or the level left.
In assay [15] the test system is Staphylococcus aureus. Description: Antibiofilm activity against methicillin-resistant Staphylococcus aureus assessed as inhibition of biofilm formation incubated for overnight by crystal violet staining based microtiter plate assay. It counts as functional, organism-based.
Assay [16] is described as follows: Inhibition of quorum sensing system in Pseudomonas aeruginosa PA14 assessed as inhibition of pyocyanin production.
The test system of assay [17] is Pseudomonas aeruginosa. Description: Antibiofilm activity against Pseudomonas aeruginosa ATCC 27853 assessed as inhibition of biofilm formation at 0.5 times of MIC by crystal violet staining based analysis relative to control. Also on record: scale not given: the % may be the effect or the level left. The format is functional.
Assay [18] has as its target T1, Transcriptional regulator MvfR (Pseudomonas aeruginosa PA14, UniProt A0A072ZLE6).
T1 sequence (A0A072ZLE6 whole entry): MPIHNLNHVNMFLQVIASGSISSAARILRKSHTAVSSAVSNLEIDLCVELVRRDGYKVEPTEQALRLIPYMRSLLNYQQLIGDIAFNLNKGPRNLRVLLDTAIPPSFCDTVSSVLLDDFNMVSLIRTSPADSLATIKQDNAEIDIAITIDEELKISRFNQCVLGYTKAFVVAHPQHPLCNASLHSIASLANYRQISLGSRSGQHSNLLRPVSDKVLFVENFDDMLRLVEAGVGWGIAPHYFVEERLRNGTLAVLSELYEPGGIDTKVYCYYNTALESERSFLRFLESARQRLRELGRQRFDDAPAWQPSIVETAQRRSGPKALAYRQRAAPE
Kind of assay: Antagonist activity at PqsR in wild-type Pseudomonas aeruginosa PAO1-L.

For assay [19], the target named is T1, Transcriptional regulator MvfR. Kind of assay: Inhibition of PqsR-mediated quorum sensing system in Pseudomonas aeruginosa PAO1 assessed as reduction in pyocyanin production.
Assay [20] can be described thus: Inhibition of quorum sensing system in Pseudomonas aeruginosa PAO1 assessed as inhibition of pyocyanin production at 256 ug/ml incubated for 24 hrs by absorbance based assay.
Assay [21] concerns Pseudomonas aeruginosa. Kind of assay: Antibiofilm activity against Pseudomonas aeruginosa PAO1 assessed as inhibition of biofilm formation at 64 microg/ml incubated for 24 hrs by BacTiter Glo reagent based luminescence analysis relative to control. The format is functional. More on the design: scale not given: the % may be the effect or the level left. To be noted: dose 64 µg/ml.

Assay [22] relates to Pseudomonas aeruginosa. Kind of assay: Antibiofilm activity against Pseudomonas aeruginosa PAO1 assessed as inhibition of biofilm formation at 100 uM relative to control. It counts as functional. Also on record: scale not given: the % may be the effect or the level left.
Assay [23] relates to Pseudomonas aeruginosa. Kind of assay: Antibiofilm activity against Pseudomonas aeruginosa PAO1 assessed as inhibition of biofilm formation incubated at 15 uM relative to control. Also on record: scale not given: the % may be the effect or the level left. It counts as functional.
Assay [24] concerns Staphylococcus aureus. Description: Antibiofilm activity against Staphylococcus aureus ATCC 33862 assessed as reduction in biofilm formation at 20 uM incubated for 24 hrs by absorbance based assay relative to control. It counts as functional. Also on record: scale not given: the % may be the effect or the level left.
The test system of assay [25] is Pseudomonas aeruginosa. Kind of assay: Antibiofilm activity against Pseudomonas aeruginosa ATCC 10145 assessed as reduction in biofilm formation at 20 uM incubated for 24 hrs by absorbance based assay relative to control. The format is functional. More on the design: scale not given: the % may be the effect or the level left.
Assay [26] can be described thus: Inhibition of Quorum sensing system Las in Pseudomonas aeruginosa PAO1 assessed as reduction in interaction with LasR regulator.
For assay [27], the system named is Staphylococcus aureus. Description: Antibiofilm activity against Staphylococcus aureus ATCC 25923 at 25 ug/ml measured after 24 hrs by crystal violet staining based analysis relative to control. It counts as functional. Conditions: dose 25 µg/ml.

Values after ≈ are worked out from the molar mass of the structure shown. A value given as a limit tells only on which side of the number the result lay.

As to `CCCCCc1ccc(C(=O)NCCn2cc(CCCCCc3[nH]cnc3-c3ccoc3)nn2)cc1`, the concentration for half-maximal inhibition (IC50) in the assay with Staphylococcus aureus [1] is 3.7 µM.
As for `O=[N+]([O-])c1ccc(-c2csc(-c3ccc(-c4cnc(-c5ccccc5)s4)cc3)n2)cc1`, in the assay on Enterococcus faecalis [2], the MIC came to 0.062 mg/L (≈ 0.14 µM). In addition, the MBEC with Enterococcus faecalis [3] is 0.002 µg/mL.
In the case of `CN(C)c1cccc(/C=N/N=C2\SCC(=O)N2c2ccc(S(N)(=O)=O)cc2)c1`, the Activity (in the assay with Pseudomonas aeruginosa [4]; in [5]) was 70% throughout.
As for `CC(=O)/C(=N\Nc1ccc([N+](=O)[O-])cc1)C(=O)O`, the MIC (with Staphylococcus aureus [6]; with Staphylococcus aureus [7]; in the assay on Staphylococcus aureus [8]; in assay [9]) was over 270 µM throughout. Further, the IC50 in assay [10] turned out to be 57 µM.
Regarding `CCCCCCCNC(=O)CCc1c[nH]c(N)n1`, the IC50 in the assay on Pseudomonas aeruginosa [11] is 43 µM.
`Cc1ccc(C(=O)c2nn(-c3nc(-c4ccccc4)c(-c4sc(-n5nc(C(=O)c6ccc(C(F)(F)F)cc6)c(C#N)c5N)nc4-c4ccccc4)s3)c(N)c2C#N)cc1`: the figures for the Activity in the assay with Staphylococcus aureus [12], in the assay on Staphylococcus aureus [13] and with Staphylococcus aureus [14] were 35%, 20% and 15%, respectively.
As to `CCCCOc1ccc(/C=C(\C)Cn2cc(CCCCCc3c[nH]c(N)n3)nn2)cc1`, in the assay on Staphylococcus aureus [15], the concentration for half-maximal inhibition (IC50) is under 10 µM.
Turning to `NCCCCCCCCCCCCNc1ccnc2cc(Cl)ccc12`, the IC50 in [16] was 12 µM. For the same compound, in the assay with Pseudomonas aeruginosa [17], the Activity was found to be 85%.
The compound `CCCCCCCCCc1nc2cc(Cl)ccc2c(=O)n1N` returned an IC50 in assay [18] of 1.2 µM.
For `Clc1ccc2c(NCCCCCCCCNCc3cc4ccccc4s3)ccnc2c1`, the 50% inhibitory concentration (IC50) in assay [19] worked out at 30 µM.
For the compound `CCCCCc1ccc(C(=O)NCCn2cc(CCCCCc3c[nH]c(N)n3)nn2)cc1`, the IC50 in the assay with Staphylococcus aureus [15] is under 7.2 µM.
In the case of `O=C(CCCCCOc1cccc(C(F)(F)F)c1)NNC(=O)Cn1c(=O)oc2ccccc21`, the inhibition in [20] (dose 256.0 µg/ml) worked out at 63%. Besides, in the assay on Pseudomonas aeruginosa [21], the Activity is recorded as 45%.
For `O=C(c1ccc(Cl)cc1)c1ccnc(C(F)F)c1`, the IC50 in assay [20] worked out at 35 µM. In addition, the Activity in the assay on Pseudomonas aeruginosa [22] is 71%.
On to `CCCCCc1ccc(C(=O)NCCn2cc(CCCCCc3[nH]cnc3-c3ccc4c(c3)OCO4)nn2)cc1`, for which, in the assay with Staphylococcus aureus [1], the IC50 came to 3.7 µM.
For `COc1cccc(NC(=O)CC(=O)CSC(=S)N[C@@H]2CCOC2=O)c1`, the Activity with Pseudomonas aeruginosa [23] is on record as 35%.
With `c1ccc(-c2csc(-c3ccc(-c4cnc(-c5ccccc5)s4)cc3)n2)cc1`, the minimum inhibitory concentration (MIC) with Enterococcus faecalis [2] turned out to be 0.125 mg/L (≈ 0.315 µM). For the same compound, in the assay on Enterococcus faecalis [3], the MBEC was determined as 0.002 µg/mL.
Take `O=C(CSC(=S)N[C@@H]1CCOC1=O)CC(=O)Nc1cccc2ccccc12`: the Activity in the assay on Pseudomonas aeruginosa [23] worked out at 35%.
As for `CCCCCCCCCCCCCC(=O)Nc1c(N)[nH]c2ccccc2c1=O`, the Activity result with Staphylococcus aureus [24] and with Pseudomonas aeruginosa [25] was “>=50%” each time.
With `CCCCCCC(CCCCCC)NC(=O)CCCc1c[nH]c(N)n1`, the 50% inhibitory concentration (IC50) in the assay on Pseudomonas aeruginosa [11] was 16 µM.
As to `C/C(=C\c1ccc2ccccc2c1)Cn1cc(CCCCCc2c[nH]c(N)n2)nn1`, the IC50 in the assay with Staphylococcus aureus [15] is under 10 µM.
Turning to `CCCCCCCC(=O)NC1CCCC1`, the IC50 in [26] was determined as 250 µM.
The compound `Cc1nn(C)c(NC(=O)c2ccc([N+](=O)[O-])cc2)c1[N+]#N` registered an Activity with Staphylococcus aureus [27] of 96%.
Consider `Clc1ccc2c(NCCCCCCCCNCc3cc4ccccc4o3)ccnc2c1`, for which the IC50 in [19] came out at 25 µM.
In the case of `CCCCCCCCCCCCCCCC(=O)Nc1c(N)[nH]c2ccccc2c1=O`, the Activity entry in the assay with Staphylococcus aureus [24] and in the assay with Pseudomonas aeruginosa [25] was “>=50%” throughout.
On to `Clc1ccc(-c2csc(-c3ccc(-c4cnc(-c5ccccc5)s4)cc3)n2)cc1`, for which the MIC in the assay on Enterococcus faecalis [2] came out at 0.032 mg/L (≈ 0.0742 µM). The MBEC with Enterococcus faecalis [3] is 0.016 µg/mL.

The term IC50 denotes the midpoint of a concentration-inhibition curve. As a reminder, the MIC is the lowest concentration that inhibits growth of the organism. The inhibition is the change of the read-out against control, counted positive when it falls.

The values are drawn from ChEMBL document CHEMBL5512599, “Synthetic non-toxic anti-biofilm agents as a strategy in combating bacterial resistance” (Eur J Med Chem, 2023).
